Source: ChEMBL document CHEMBL1148931, “New sesterterpenes from the sponge Smenospongia sp” (2004)
In brackets after ≈: the same amount, converted by molar mass.

Test system: K562
Experiment: Cytotoxicity against human K562 cells
Assay type: functional
Conditions: read-out: LC50 (the source's name)

Q: For `CC(=O)O[C@@H](C/C=C(\C)CC/C=C(\C)CC/C=C(\C)CC(=O)CC(C)C)c1ccoc1`, which CC50 is on record?
A: Its CC50 is 31.6 µg/mL (≈ 73.7 µM).

Q: For `C/C(=C\CC/C(C)=C/C[C@H](O)c1ccoc1)CC/C=C(\C)CC(=O)CC(C)C`, which CC50 is on record?
A: Its CC50 is 3 µg/mL (≈ 7.76 µM).

Q: With `CC(=O)OC[C@]12CCCC(C)(C)[C@@H]1CC[C@@]1(C)[C@@H]3CC=C4C(=O)O[C@@H](OC(C)=O)[C@@H]4[C@@]3(C)CC[C@@H]12` as the compound, how does the CC50 read?
A: The CC50 was 11.2 µg/mL (≈ 23 µM).

Q: For `CC(=O)O[C@@H]1OC=C2[C@@H](OC(C)=O)C[C@@H]3[C@](C)(CC[C@H]4[C@@]3(C)CC[C@H]3C(C)(C)CCC[C@@]34CO)[C@H]21`, which CC50 is on record?
A: Its CC50 is 0.02 µg/mL (≈ 0.0409 µM).

Q: `CC(=O)OC[C@]12CCCC(C)(C)[C@@H]1CC[C@@]1(C)[C@@H]3CC=C4C(=O)O[C@@H](O)[C@@H]4[C@@]3(C)CC[C@@H]12` was tested. Which CC50 did it give?
A: The CC50 was 4.9 µg/mL (≈ 11 µM).
